Organism: Rattus norvegicus
Assay: Open TG-GATES - Regimen: Single
Assay type: toxicity, organism-based, Sprague-Dawley
Design: regimen Single, gender Male, age 6 weeks
Conditions: in vivo, po, route gavage; for Bas / Eos / Fbg / Hb / Ht / Lym / MCHC / MCV / Mono / Neu / PT / Plat / RBC / Ret / WBC / APTT: tissue Blood; for KIDNEY_L / KIDNEY_R / KIDNEY_TOTAL: tissue Kidney; for LIVER: tissue Liver
[1] = 300 mg/kg, 3 h, dose level Middle
[2] = 300 mg/kg, 3 h, tissue Plasma, dose level Middle
[3] = 300 mg/kg, 6 h, dose level Middle
[4] = 300 mg/kg, 6 h, tissue Plasma, dose level Middle
[5] = 300 mg/kg, 9 h, dose level Middle
[6] = 300 mg/kg, 9 h, tissue Plasma, dose level Middle
[7] = 300 mg/kg, 24 h, dose level Middle
[8] = 300 mg/kg, 24 h, tissue Plasma, dose level Middle

CN(C)C(=N)N=C(N)N [METFORMIN]
Bas [1]: 0%
Eos [1]: 1%
Fbg [1]: 256.8 mg/dL
Hb [1]: 12.8 g/dL
Ht [1]: 39.1%
Lym [1]: 72.6%
MCHC [1]: 32.9%
MCV [1]: 64.2 fL
Mono [1]: 2.8%
Neu [1]: 23.2%
PT [1]: 12.3 s
Plat [1]: 125.2 x10_4/uL
RBC [1]: 612.2 x10_4/ul
Ret [1]: 10.1%
WBC [1]: 96 x10_2/uL
KIDNEY_L [1]: 0.9 g
KIDNEY_R [1]: 0.9 g
KIDNEY_TOTAL [1]: 1.7 g
LIVER [1]: 8.1 g
ALP [2]: 1196.4 IU/L
ALT [2]: 58 IU/L
AST [2]: 77.2 IU/L
BUN [2]: 8.8 mg/dL
CRE [2]: 0.2 mg/dL
Ca [2]: 11.1 mg/dL
Cl [2]: 106.2 meq/L
DBIL [2]: 0.01 mg/dL
GLC [2]: 156.2 mg/dL
IP [2]: 9 mg/dL
K [2]: 3.8 meq/L
LDH [2]: 65 IU/L
Na [2]: 140.6 meq/L
PL [2]: 132.2 mg/dL
RALB [2]: 2.5 g/dL
TBIL [2]: 0.038 mg/dL
TG [2]: 46.2 mg/dL
TP [2]: 5.2 g/dL
gamma-GTP [2]: 1.2 IU/L
TERMINAL_BW [3]: 200 g
APTT [3]: 16.3 s
Bas [3]: 0.2%
Eos [3]: 1%
Fbg [3]: 254 mg/dL
Hb [3]: 12.8 g/dL
Ht [3]: 38.1%
Lym [3]: 75.6%
MCHC [3]: 33.6%
MCV [3]: 63 fL
Mono [3]: 3%
Neu [3]: 20.2%
PT [3]: 12.5 s
Plat [3]: 113.5 x10_4/uL
RBC [3]: 604.4 x10_4/ul
Ret [3]: 9.6%
WBC [3]: 95.4 x10_2/uL
KIDNEY_L [3]: 0.9 g
KIDNEY_R [3]: 0.9 g
KIDNEY_TOTAL [3]: 1.7 g
LIVER [3]: 7.3 g
ALP [4]: 1116.6 IU/L
ALT [4]: 85 IU/L
AST [4]: 85.6 IU/L
BUN [4]: 8.4 mg/dL
CRE [4]: 0.2 mg/dL
Ca [4]: 11 mg/dL
Cl [4]: 105.6 meq/L
DBIL [4]: 0.004 mg/dL
GLC [4]: 153.4 mg/dL
IP [4]: 10.3 mg/dL
K [4]: 4.1 meq/L
LDH [4]: 51.8 IU/L
Na [4]: 140 meq/L
PL [4]: 126 mg/dL
RALB [4]: 2.5 g/dL
TBIL [4]: 0.04 mg/dL
TG [4]: 28.2 mg/dL
TP [4]: 5.1 g/dL
gamma-GTP [4]: 1 IU/L
TERMINAL_BW [5]: 199.7 g
APTT [5]: 15.9 s
Bas [5]: 0%
Eos [5]: 1%
Fbg [5]: 250.2 mg/dL
Hb [5]: 12.8 g/dL
Ht [5]: 38.2%
Lym [5]: 75%
MCHC [5]: 33.6%
MCV [5]: 64.1 fL
Mono [5]: 2.6%
Neu [5]: 20.4%
PT [5]: 12.4 s
Plat [5]: 111.7 x10_4/uL
RBC [5]: 595.8 x10_4/ul
Ret [5]: 10.1%
WBC [5]: 82.7 x10_2/uL
KIDNEY_L [5]: 0.8 g
KIDNEY_R [5]: 0.9 g
KIDNEY_TOTAL [5]: 1.7 g
LIVER [5]: 6.8 g
ALP [6]: 1220.2 IU/L
ALT [6]: 61.2 IU/L
AST [6]: 75.6 IU/L
BUN [6]: 9 mg/dL
CRE [6]: 0.1 mg/dL
Ca [6]: 10.7 mg/dL
Cl [6]: 106.6 meq/L
DBIL [6]: 0.008 mg/dL
GLC [6]: 162.6 mg/dL
IP [6]: 10.2 mg/dL
K [6]: 4 meq/L
LDH [6]: 52.2 IU/L
Na [6]: 140.8 meq/L
PL [6]: 126.6 mg/dL
RALB [6]: 2.5 g/dL
TBIL [6]: 0.042 mg/dL
TG [6]: 26.2 mg/dL
TP [6]: 5 g/dL
gamma-GTP [6]: 1.4 IU/L
TERMINAL_BW [7]: 208.8 g
APTT [7]: 16.1 s
Bas [7]: 0%
Eos [7]: 0.8%
Fbg [7]: 235.6 mg/dL
Hb [7]: 13.2 g/dL
Ht [7]: 39.1%
Lym [7]: 75.2%
MCHC [7]: 33.8%
MCV [7]: 63.3 fL
Mono [7]: 3%
Neu [7]: 20.6%
PT [7]: 12.5 s
Plat [7]: 112.7 x10_4/uL
RBC [7]: 617.8 x10_4/ul
Ret [7]: 9.3%
WBC [7]: 73.1 x10_2/uL
KIDNEY_L [7]: 0.9 g
KIDNEY_R [7]: 0.9 g
KIDNEY_TOTAL [7]: 1.8 g
LIVER [7]: 9.7 g
ALP [8]: 1591.2 IU/L
ALT [8]: 52.4 IU/L
AST [8]: 77.8 IU/L
BUN [8]: 15.2 mg/dL
CRE [8]: 0.2 mg/dL
Ca [8]: 11.2 mg/dL
Cl [8]: 104.6 meq/L
DBIL [8]: 0.014 mg/dL
GLC [8]: 178 mg/dL
IP [8]: 8.9 mg/dL
K [8]: 4.1 meq/L
LDH [8]: 80 IU/L
Na [8]: 141.4 meq/L
PL [8]: 146.6 mg/dL
RALB [8]: 2.5 g/dL
TBIL [8]: 0.03 mg/dL
TC [8]: 83.4 mg/dL
TG [8]: 87 mg/dL
TP [8]: 5.4 g/dL
gamma-GTP [8]: 1 IU/L
TERMINAL_BW (1000 mg/kg, 3 h, dose level High): 201 g

From ChEMBL document CHEMBL3885861, “Open TG-GATES”
